Laboratory results: patent US11179412B2, “Methods of treating conditions involving elevated inflammatory response” (University of Pittsburgh—Of the Commonwealth System of …, priority 2017, dated 2021)
Counter-ions that a name gives are not always drawn.

Tested on: STING activation (IFNβ release) in iBMDMs
Test: IFNβ release ELISA after STING ligand (or LPS) stimulation, iBMDMs
Type: cell-based, mouse
Settings: iBMDMs; 3′3′-cGAMP 10 μg/ml, 16 hours; compound 10 μM
Text: Commercially available enzyme-linked immunosorbent assay (ELISA) kits were used to measure the concentrations of mouse IFNβ (Thermo Fisher Scientific) or human IFNβ (Thermo Fisher Scientific) in culture medium according to the manufacturer's instructions. […]

SMILES | fold increase in IFN-β release
CCNC(=O)c1noc(-c2cc(C(C)C)c(O)cc2O)c1-c1ccc(CN2CCOCC2)cc1 [AUY922 (NVP-AUY922)] | 0.93 fold
C=CC(=O)Nc1cccc(Nc2nc(Nc3ccc(OCCOC)cc3)ncc2F)c1 [AVL-292] | 0.16 fold
C[C@@H]1COCCN1c1cc(C2(S(C)(=O)=O)CC2)nc(-c2cccc3[nH]ccc23)n1 [AZ20] | 0.32 fold
COc1cc(N2CCN(C)CC2)ccc1Nc1nccc(-c2cn(C)c3cnccc23)n1 [AZ191] | 2.01 fold
COc1cc(OC2CCN(C)CC2)ccc1Nc1ncc2c(n1)n(C1CCCC1)c(=O)n2C [AZ 3146] | 0.10 fold
CC(=O)Nc1cccc2c1c(Sc1ccc(Cl)cc1)c(C)n2CC(=O)O [AZD1981] | 3.11 fold
COC1CCN(C(=O)c2cc(Cc3n[nH]c(=O)c4ccccc34)ccc2F)CC1 [AZD2461] | 2.12 fold
COc1cc(CCc2cc(NC(=O)c3ccc(N4CC(C)NC(C)C4)cc3)n[nH]2)cc(OC)c1 (stereo not shown) [AZD4547] | 0.35 fold
Cc1cc([C@@H](C)Nc2ccccc2C(=O)O)c2nc(N3CCOCC3)cc(=O)n2c1 [AZD6482] | 4.47 fold
CN(C)C(=O)c1ccc(S(=O)(=O)c2ccc(NC(=O)[C@@](C)(O)C(F)(F)F)c(Cl)c2)cc1 [AZD7545] | 3.45 fold
NC(=O)Nc1cc(-c2cccc(F)c2)sc1C(=O)N[C@H]1CCCNC1 [AZD7762] | 0.45 fold
C=CC(=O)Nc1cc(Nc2nccc(-c3cn(C)c4ccccc34)n2)c(OC)cc1N(C)CCN(C)C [AZD9291] | 0.85 fold
NC(=O)c1ncn([C@@H]2O[C@H](CO)[C@@H](O)[C@H]2O)c1N [Acadesine] | 1.02 fold
COc1ccc2cccc(CCNC(C)=O)c2c1 [Agomelatine] | 0.97 fold
Oc1ncnc2[nH]ncc12 [Allopurinol] | 3.15 fold
CCOC(=O)[C@H]1O[C@@H]1C(=O)N[C@@H](CC(C)C)C(=O)NCCC(C)C [Aloxistatin] | 0.31 fold
Cc1c(-c2ccnn2C)cc(C(=O)NCc2ccc(S(C)(=O)=O)cn2)c(=O)n1-c1cccc(C(F)(F)F)c1 [Alvelestat (AZD9668), Alvelestat] | 0.27 fold
CCOC(=O)C1=C(COCCN)NC(C)=C(C(=O)OC)C1c1ccccc1Cl (stereo not shown) [Amlodipine] | 1.46 fold
COc1cc(F)c(C(C)C)cc1-c1ccc(C(F)(F)F)cc1CN1C(=O)O[C@H](c2cc(C(F)(F)F)cc(C(F)(F)F)c2)[C@@H]1C [Anacetrapib (MK-0859), Anacetrapib] | 2.12 fold
CC(C)(C#N)c1cc(Cn2cncn2)cc(C(C)(C)C#N)c1 [Anastrozole] | 0.98 fold
COc1ccc(C(=O)N2CCCC2=O)cc1 [Aniracetam] | 1.02 fold
N#CC1(c2ccc(NC(=O)c3cccnc3NCc3ccncc3)cc2)CCCC1 [Apatinib] | 0.26 fold
O=c1cc(-c2ccc(O)cc2)oc2cc(O)cc(O)c12 [Apigenin] | 0.44 fold

SMILES | fold increase in IFN-β release
COc1ccc(-n2nc(C(N)=O)c3c2C(=O)N(c2ccc(N4CCCCC4=O)cc2)CC3)cc1 [Apixaban] | 2.83 fold
O=C1C(=O)N(Cc2ccc(Cl)c(Cl)c2)c2ccccc21 [Apoptosis Activator 2] | 0.17 fold
C[C@@H](O[C@H]1OCCN(Cc2n[nH]c(=O)[nH]2)[C@H]1c1ccc(F)cc1)c1cc(C(F)(F)F)cc(C(F)(F)F)c1 [Aprepitant] | 0.76 fold
O=C(O)c1cccc(-c2noc(-c3ccccc3F)n2)c1 [Ataluren (PTC124), Ataluren] | 1.74 fold
CN(C)C(=O)Nc1cccc(-c2ccc(N(C)C)cc2)c1 [Atglistatin] | 0.91 fold
CC(C)c1c(C(=O)Nc2ccccc2)c(-c2ccccc2)c(-c2ccc(F)cc2)n1CC[C@@H](O)C[C@@H](O)CC(=O)[O-].CC(C)c1c(C(=O)Nc2ccccc2)c(-c2ccccc2)c(-c2ccc(F)cc2)n1CC[C@@H](O)C[C@@H](O)CC(=O)[O-].[Ca+2] [Atorvastatin Calcium] | 1.45 fold
CC(=O)OCOC(=O)CN(CC(=O)OCOC(C)=O)c1ccccc1OCCOc1ccccc1N(CC(=O)OCOC(C)=O)CC(=O)OCOC(C)=O [BAPTA-AM] | 0.52 fold
CC[C@@H]1C(=O)N(C)c2cnc(Nc3ccc(C(=O)NC4CCN(C)CC4)cc3OC)nc2N1C1CCCC1 [BI 2536] | 0.45 fold
CC(C)CCN1c2nc(Nc3cc(F)c(O)c(F)c3)ncc2N(C)C(=O)C1C (stereo not shown) [BI-D1870] | 0.79 fold
C/C(=C\C(=O)Nc1ccccc1C(=O)O)c1ccc2ccccc2c1 [BIBR 1532] | 2.10 fold
COc1ccc2c(c1)c(CC(=O)N1CCOCC1)c(C)n2C(=O)c1ccc(Cl)cc1 [BML-190] | 0.35 fold
COc1ccnc2[nH]cc(C(=O)C(=O)N3CCN(C(=O)c4ccccc4)C[C@H]3C)c12 [BMS-378806] | 1.70 fold
Cn1c(N2CCCCS2(=O)=O)nc(C(=O)NCc2ccc(F)cc2)c(O)c1=O [BMS-707035] | 1.59 fold
O=C(Oc1cc(S(=O)(=O)c2ccccc2)ccc1[N+](=O)[O-])c1ccc(Cl)cc1 [BTB06584] | 3.11 fold
O=C(Nc1cccc(Nc2ncc(Br)c(NCCc3cnc[nH]3)n2)c1)N1CCCC1 [BX-912] | 1.86 fold
CNC(=O)[C@H](Cc1ccccc1)NC(=O)[C@H](CC(C)C)[C@H](CSc1cccs1)C(=O)NO [Batimastat (BB-94), Batimastat] | 1.20 fold
Cc1c(-c2ccc(O)cc2)n(Cc2ccc(OCCN3CCCCCC3)cc2)c2ccc(O)cc12 [Bazedoxifene HCl] | 0.15 fold
O=C(/C=C/c1cccc(S(=O)(=O)Nc2ccccc2)c1)NO [Belinostat (PXD101), Belinostat] | 0.70 fold
COc1c(O)cc2c(c1O)[C@@H]1O[C@H](CO)[C@@H](O)[C@H](O)[C@H]1OC2=O [Bergenin] | 0.57 fold
CC[C@H](NC(=O)[C@H](C)NC)C(=O)N1C[C@@H](O)C[C@H]1Cc1c(-c2[nH]c3cc(F)ccc3c2C[C@@H]2C[C@H](O)CN2C(=O)[C@H](CC)NC(=O)[C@H](C)NC)[nH]c2cc(F)ccc12 [Birinapant] | 1.15 fold
CC(C)NCC(O)COc1ccc(COCCOC(C)C)cc1 (stereo not shown) [Bisoprolol fumarate] | 0.70 fold
CC(C)C[C@H](NC(=O)[C@H](Cc1ccccc1)NC(=O)c1cnccn1)B(O)O [Bortezomib (PS-341), Bortezomib] | 0.37 fold
COc1ccccc1Oc1c(NS(=O)(=O)c2ccc(C(C)(C)C)cc2)nc(-c2ncccn2)nc1OCCO [Bosentan Hydrate] | 1.20 fold

SMILES | fold increase in IFN-β release
COc1cc(Nc2c(C#N)cnc3cc(OCCCN4CCN(C)CC4)c(OC)cc23)c(Cl)cc1Cl [Bosutinib (SKI-606), Bosutinib] | 1.78 fold
CCN[C@H]1CN(CCCOC)S(=O)(=O)c2sc(S(N)(=O)=O)cc21 [Brinzolamide] | 1.93 fold
CCCCN1CCCCC1C(=O)Nc1c(C)cccc1C (stereo not shown) [Bupivacaine HCl] | 0.42 fold
NC1(Cc2ccc(Cl)cc2)CCN(c2ncnc3[nH]ccc23)CC1 [CCT128930] | 1.46 fold
CC(C)C[C@H](NC(=O)[C@@H](NC(=O)c1cccc(-c2ccccc2)n1)[C@@H](C)O)B(O)O [CEP-18770 (Delanzomib), Delanzomib] | 0.82 fold
Cc1c(NC(=O)c2ccc(C(C)(C)C)cc2)cccc1-c1cn(C)c(=O)c(Nc2ccc(C(=O)N3CCOCC3)cc2)n1 [CG11746] | 0.16 fold
O=C(NC(NC(=S)Nc1ccc(F)c([N+](=O)[O-])c1)C(Cl)(Cl)Cl)C(c1ccccc1)c1ccccc1 (stereo not shown) [CGK 733] | 2.50 fold
Nc1ncnc2n[nH]c(Nc3ccc(F)cc3)c12 [CGP 57380] | 0.54 fold
CCNC(=O)[C@H]1O[C@@H](n2cnc3c(N)nc(NCCc4ccc(CCC(=O)O)cc4)nc32)[C@H](O)[C@@H]1O [CGS 21680 HCl] | 2.00 fold
O=c1[nH]c2ccc(Cl)cc2c(N[C@@H]2CN3CCC2CC3)c1-c1nc2ccccc2[nH]1 [CHIR-124] | 1.30 fold
Cc1[nH]c2ccccc2c1CCNC(=O)c1cccs1 [CK-636] | 2.06 fold
C=CC(=O)Nc1cccc(Nc2nc(Nc3ccc(Oc4ccnc(C(=O)NC)c4)cc3)ncc2F)c1 [CNX-774] | 0.73 fold
C=CC(=O)Nc1cccc(Nc2nc(Nc3ccc(NC4CN(CCF)C4)cc3OC)ncc2C(F)(F)F)c1 [CNX-2006] | 1.93 fold
CN(C)C(=O)[C@H](O)[C@H](Cc1ccccc1)NC(=O)c1cc2cc(Cl)ccc2[nH]1 [CP-91149] | 0.14 fold
COCCOc1ccc2c(c1)ncn2-c1ccc2cccc(N3CCC(N)CC3)c2n1 [CP-673451] | 0.27 fold
O=C(O)c1cc2cccc([N+](=O)[O-])c2[nH]1 [CRT0044876] | 2.75 fold
O=C(O)c1cc(I)ccc1NC(=O)[C@H](Cc1ccccc1)NCc1ccccc1 [CW069] | 4.03 fold
O=C(/C=C/c1ccc(O)c(O)c1)OCCc1ccccc1 [Caffeic Acid Phenethyl Ester] | 0.44 fold
Cc1ccc([C@@H]2O[C@H](CO)[C@@H](O)[C@H](O)[C@H]2O)cc1Cc1ccc(-c2ccc(F)cc2)s1 [Canagliflozin] | 1.58 fold
CCOc1nc2cccc(C(=O)O)c2n1Cc1ccc(-c2ccccc2-c2nnn[nH]2)cc1 [Candesartan] | 2.31 fold
C[C@H](CS)C(=O)N1CCC[C@H]1C(=O)O [Captopril] | 2.62 fold
